Patent US20240246908A1 (ORION CORPORATION, priority 2021, published 2024)

System: YAP-TEAD
Experiment: TEAD inhibition, Hippo Pathway TEAD Reporter MCF-7 luciferase assay
Type: cell-based
Settings: Homo sapiens, MCF7, 24 h, Hippo Pathway TEAD Reporter MCF-7 cells, luciferase activity after 24 h; read-out: IC50 of the test compounds on YAP-TEAD inhibition (Group)
In short: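 IC50 derived from ONE-Glo luciferase luminescence after 24 h compound exposure (11 concentrations in quadruplicate, 0.1% DMSO control). Reporter: MCF-7 line expressing firefly luciferase under TEAD elements, constitutively activated by nuclear YAP1.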

Row | SMILES | IC50 [µM]
1 | COc1ccc(Oc2ccc(F)c(F)c2)cc1NC(=O)C1CCC(=O)N1C1CC1 (centres unmarked) [Compound 111, 1-Cyclopropyl-N-(5-(3,4-difluorophenoxy)-2-methoxyphenyl)-5-oxopyrrolidine-2-carboxamide] | 0.05 to 0.3
2 | CN1C(=O)CCC1C(=O)Nc1cc(COC2CCC(F)(F)CC2)cc2c1OCCO2 (centres unmarked) [Compound 113, N-(7-(((4,4-Difluorocyclohexyl)oxy)methyl)-2,3-dihydrobenzo[b][1,4]dioxin-5-yl)-1-methyl-5-oxopyrrolidine-2-carboxamide] | 0.301 to 2
3 | O=C(Nc1cc(Oc2ccc(C(F)(F)F)cc2)cc2c1OCCO2)C1CCC(=O)N1C1CC1 (centres unmarked) [Compound 114, 1-Cyclopropyl-5-oxo-N-(7-(4-(trifluoromethyl)phenoxy)-2,3-dihydrobenzo[b][1,4]dioxin-5-yl)pyrrolidine-2-carboxamide] | < 0.05
4 | COc1ccc(Oc2ccc(OC(F)(F)F)cn2)cc1NC(=O)C1CCC(=O)N1C (centres unmarked) [Compound 115, N-(2-Methoxy-5-((5-(trifluoromethoxy)pyridin-2-yl)oxy)phenyl)-1-methyl-5-oxopyrrolidine-2-carboxamide] | 0.05 to 0.3
5 | COc1ccc(Oc2ccc(C(F)(F)F)cn2)cc1NC(=O)C1CNC(=O)N1C (centres unmarked) [Compound 118, N-(2-Methoxy-5-((5-(trifluoromethyl)pyridin-2-yl)oxy)phenyl)-3-methyl-2-oxoimidazolidine-4-carboxamide] | < 0.05
6 | COc1ccc(Oc2ccc(C(F)(F)F)cc2)cc1NC(=O)[C@@H]1CCC(=O)NC1 [Compound 120, (R)—N-(2-Methoxy-5-(4-(trifluoromethyl)phenoxy)phenyl)-6-oxopiperidine-3-carboxamide] | 0.301 to 2
7 | COc1ccc(Oc2ccc(C(F)(F)F)cc2)cc1NC(=O)c1ccc(=O)[nH]c1 [Compound 122, N-(2-Methoxy-5-(4-(trifluoromethyl)phenoxy)phenyl)-6-oxo-1,6-dihydro-pyridine-3-carboxamide] | 0.301 to 2
8 | COc1ccc(Oc2ccc(C(F)(F)F)cn2)cc1NC(=O)C1(C)CNC(=O)N1C (centres unmarked) [Compound 123, N-(2-Methoxy-5-((5-(trifluoromethyl)pyridin-2-yl)oxy)phenyl)-3,4-dimethyl-2-oxoimidazolidine-4-carboxamide] | 0.301 to 2
9 | COc1ccc(Oc2ccc(C(F)(F)F)cn2)cc1NC(=O)[C@@H]1COC(=O)N1C [Compound 125, (S)—N-(2-Methoxy-5-((5-(trifluoromethyl)pyridin-2-yl)oxy)phenyl)-3-methyl-2-oxooxazolidine-4-carboxamide] | 0.05 to 0.3
10 | CCN1C(=O)NCC1C(=O)Nc1cc(Oc2ccc(C(F)(F)F)cn2)ccc1OC (centres unmarked) [Compound 127, 3-Ethyl-N-(2-methoxy-5-((5-(trifluoromethyl)pyridin-2-yl)oxy)phenyl)-2-oxo-imidazolidine-4-carboxamide] | 0.05 to 0.3
11 | COc1ccc(Oc2ccc(C(F)(F)F)cn2)cc1NC(=O)[C@H]1CCC(=O)N1C1CC1 [Compound 128, (R)-1-Cyclopropyl-N-(2-methoxy-5-((5-(trifluoromethyl)pyridin-2-yl)oxy)-phenyl)-5-oxopyrrolidine-2-carboxamide] | < 0.05
12 | COc1ccc(Oc2ccc(C(F)(F)F)cn2)cc1NC(=O)[C@@H]1CCC(=O)N1C1CC1 [Compound 129, (S)-1-Cyclopropyl-N-(2-methoxy-5-((5-(trifluoromethyl)pyridin-2-yl)oxy)-phenyl)-5-oxopyrrolidine-2-carboxamide] | < 0.05
13 | COc1ccc(Oc2ccc(C(F)(F)F)cc2)cc1NC(=O)[C@@]1(C)CCC(=O)N1C [Compound 134, (R)—N-(2-methoxy-5-(4-(trifluoromethyl)phenoxy)phenyl)-1,2-dimethyl-5-oxopyrrolidine-2-carboxamide] | < 0.05
14 | COc1ccc(Oc2ccc(C(F)(F)F)cc2)cc1NC(=O)C1CN(C)C(=O)N1C (centres unmarked) [Compound 139, N-(2-Methoxy-5-(4-(trifluoromethyl)phenoxy)phenyl)-1,3-dimethyl-2-oxo-imidazolidine-4-carboxamide] | < 0.05
15 | COc1ccc(Oc2ccc(C(F)(F)F)cc2)cc1NC(=O)[C@H]1CNC(=O)N1C [Compound 140, (R)—N-(2-Methoxy-5-(4-(trifluoromethyl)phenoxy)phenyl)-3-methyl-2-oxo-imidazolidine-4-carboxamide] | 0.05 to 0.3
16 | COc1ccc(Oc2ccc(C(F)(F)F)cc2)cc1NC(=O)[C@@H]1CNC(=O)N1C [Compound 141, (S)—N-(2-Methoxy-5-(4-(trifluoromethyl)phenoxy)phenyl)-3-methyl-2-oxoimidazolidine-4-carboxamide] | < 0.05
17 | COc1ccc(Oc2ccc(C(F)(F)F)cc2)cc1NC(=O)C1CCC(=O)N1CC1CC1 (centres unmarked) [Compound 147, 1-(Cyclopropylmethyl)-N-(2-methoxy-5-(4-(trifluoromethyl)phenoxy)phenyl)-5-oxopyrrolidine-2-carboxamide] | 0.05 to 0.3

Second part, the compound after the results:

Row | IC50 [µM] | SMILES
18 | < 0.05 | O=C(Nc1cc(Oc2ccc(C(F)(F)F)cc2)cc2c1OCC2)C1CCC(=O)N1C1CC1 (centres unmarked) [Compound 109, 1-Cyclopropyl-5-oxo-N-(5-(4-(trifluoromethyl)phenoxy)-2,3-dihydro-benzofuran-7-yl)pyrrolidine-2-carboxamide]
19 | < 0.05 | COc1ccc(Oc2ccc(C(F)(F)F)cc2)cc1NC(=O)C1CCC(=O)N1C1CC1 (centres unmarked) [Compound 110, 1-Cyclopropyl-N-(2-methoxy-5-(4-(trifluoromethyl)phenoxy)phenyl)-5-oxo-pyrrolidine-2-carboxamide]
20 | 0.05 to 0.3 | COc1ccc(Oc2ccc(OC(F)(F)F)cn2)cc1NC(=O)C1COC(=O)N1C (centres unmarked) [Compound 112, N-(2-Methoxy-5-((5-(trifluoromethoxy)pyridin-2-yl)oxy)phenyl)-3-methyl-2-oxooxazolidine-4-carboxamide]
21 | 0.05 to 0.3 | COc1ccc(Oc2ccc(C(F)(F)F)cc2)cc1NC(=O)C1CCS(=O)(=O)C1 (centres unmarked) [Compound 116, N-(2-Methoxy-5-(4-(trifluoromethyl)phenoxy)phenyl)tetrahydrothiophene-3-carboxamide 1,1-dioxide]
22 | < 0.05 | COc1ccc(Oc2ccc(C(F)(F)F)cc2)cc1NC(=O)C1CNC(=O)N1C (centres unmarked) [Compound 117, N-(2-Methoxy-5-(4-(trifluoromethyl)phenoxy)phenyl)-3-methyl-2-oxo-imidazolidine-4-carboxamide]
23 | < 0.05 | COc1ccc(Oc2ccc(C(F)(F)F)cc2)cc1NC(=O)[C@H]1CCC(=O)NC1 [Compound 119, (S)—N-(2-Methoxy-5-(4-(trifluoromethyl)phenoxy)phenyl)-6-oxopiperidine-3-carboxamide]
24 | 0.301 to 2 | COc1ccc(Oc2ccc(C(F)(F)F)cc2)cc1NC(=O)C1(C)CCC(=O)NC1 (centres unmarked) [Compound 121, N-(2-Methoxy-5-(4-(trifluoromethyl)phenoxy)phenyl)-3-methyl-6-oxo-piperidine-3-carboxamide]
25 | 0.301 to 2 | COc1ccc(Oc2ccc(C(F)(F)F)cn2)cc1NC(=O)[C@H]1CNC(=O)N1C [Compound 124, (R)—N-(2-Methoxy-5-((5-(trifluoromethyl)pyridin-2-yl)oxy)phenyl)-3-methyl-2-oxoimidazolidine-4-carboxamide]
26 | 0.05 to 0.3 | COc1ccc(Oc2ccc(C(F)(F)F)cn2)cc1NC(=O)[C@H]1COC(=O)N1C [Compound 126, (R)—N-(2-Methoxy-5-((5-(trifluoromethyl)pyridin-2-yl)oxy)phenyl)-3-methyl-2-oxooxazolidine-4-carboxamide]
27 | < 0.05 | COc1ccc(Oc2ccc(C(F)(F)F)cn2)cc1NC(=O)[C@@H]1CNC(=O)N1C [Compound 130, (S)—N-(2-Methoxy-5-((5-(trifluoromethyl)pyridin-2-yl)oxy)phenyl)-3-methyl-2-oxoimidazolidine-4-carboxamide]
28 | < 0.05 | COc1ccc(Oc2ccc(C(F)(F)F)cn2)cc1NC(=O)C1CNC(=O)N1C1CC1 (centres unmarked) [Compound 131, 3-Cyclopropyl-N-(2-methoxy-5-((5-(trifluoromethyl)pyridin-2-yl)oxy)phenyl)-2-oxoimidazolidine-4-carboxamide]
29 | 0.05 to 0.3 | COc1ccc(Oc2ccc(C(F)(F)F)cc2)cc1NC(=O)[C@]1(C)CCC(=O)N1C [Compound 135, (S)—N-(2-Methoxy-5-(4-(trifluoromethyl)phenoxy)phenyl)-1,2-dimethyl-5-oxo-pyrrolidine-2-carboxamide]
30 | < 0.05 | COc1ccc(Oc2ccc(C(F)(F)F)cc2)cc1NC(=O)C1CCC(=O)N1CC(N)=O (centres unmarked) [Compound 136, 1-(2-Amino-2-oxoethyl)-N-(2-methoxy-5-(4-(trifluoromethyl)phenoxy)phenyl)-5-oxopyrrolidine-2-carboxamide]
31 | 0.301 to 2 | COc1ccc(Oc2ccc(C(F)(F)F)cc2)cc1NC(=O)C1CCC(=O)N1c1cnn(C)c1 (centres unmarked) [Compound 137, N-(2-Methoxy-5-(4-(trifluoromethyl)phenoxy)phenyl)-1-(1-methyl-1H-pyrazol-4-yl)-5-oxopyrrolidine-2-carboxamide]
32 | 0.05 to 0.3 | COc1ccc(Oc2ccc(C(F)(F)F)cc2)cc1NC(=O)C1CCC(=O)N1C1CCOC1 (centres unmarked) [Compound 138, N-(2-Methoxy-5-(4-(trifluoromethyl)phenoxy)phenyl)-5-oxo-1-(tetrahydrofuran-3-yl)pyrrolidine-2-carboxamide]
33 | 0.301 to 2 | COc1ccc(Oc2ccc(C(F)(F)F)cc2)cc1NC(=O)C1CN(C)C(=O)N1C(C)=O (centres unmarked) [Compound 142, 3-Acetyl-N-(2-methoxy-5-(4-(trifluoromethyl)phenoxy)phenyl)-1-methyl-2-oxoimidazolidine-4-carboxamide]
34 | < 0.05 | COc1ccc(Oc2ccc(C(F)(F)F)cc2)cc1NC(=O)[C@@H]1CC(OC)C(=O)N1C (stereo partly drawn) [Compound 143, (2S)-4-Methoxy-N-(2-methoxy-5-(4-(trifluoromethyl)phenoxy)phenyl)-1-methyl-5-oxopyrrolidine-2-carboxamide]
35 | 0.05 to 0.3 | COc1ccc(Oc2ccc(C(F)(F)F)cc2)cc1NC(=O)C1CNC(=O)N1 (centres unmarked) [Compound 144, N-(2-Methoxy-5-(4-(trifluoromethyl)phenoxy)phenyl)-2-oxoimidazolidine-4-carboxamide]
